From US8097650B2, “Method of treating a condition associated with phosphorylation of TASK-1” (The Trustees of Columbia University In The City of New York, priority 2005, dated 2012)
Read-outs that look alike come from different tables or passages of the source.

Legend:
quiescent myocytes = assay: Spontaneous activity in quiescent mouse ventricular myocytes (current clamp); type: cell-based
Experimental: (§1) Adult mice, 2-3 months old, were anesthetized with ketamine/xylazine and their hearts were removed according to protocols approved by the Columbia University-IACUC. Experiments were performed on single rod-shaped, quiescent ventricular myocytes dissociated using a standard retrograde collagenase perfusion (Kuznetsov V et al. (1995) Circ Res 76: 40-52) from hearts of mice that were either wild-type (WT), or PAFR knockouts (KO). Both WT and KO mice were bred on a C57/B16 background. The derivation of the KO mice has been described previously (Hoffman, B F et al.(1996) J Cardiovasc Electrophysiol 7:120-133).
(§2) Prior to electrophysiological measurements, cells were placed into the perfusion chamber and superfused at room temperature with Tyrode's buffer (in mM: NaCl, 140; KCl, 5.4; CaCl2 1; MgCl2, Hepes, 5; Glucose, 10; pH 7.4). The whole-cell patch clamp technique was used with pipettes having resistances of 1.5-3 MΩ (intracellular solution, in mM: aspartic acid, 130; KOH, 146; NaCl, 10; CaCl2, 2; EGTA, 5; Hepes, 10; MgATP, 2; pH 7.2). Solutions of C-PAF, the PAFR antagonist, CV-6209 (Biomol) and the PKC inhibitor, bisindolylmaleimide I (BIM I; Calbiochem) were prepared in water and diluted in Tyrode's before use. […] A custom-made fast perfusion device was used to exchange the solution around the cell within 1 s (DiFrancesco et al. (1986) J Physiol 377: 61-88).
(§3) Current and voltage protocols were generated using Clampex 7.0 software applied by means of an Axopatch 200B amplifier and a Digidata 1200 interface (Axon Instruments). During voltage clamp, steady state current traces were acquired at 500 Hz and final filtered at 10 Hz. During current clamp, membrane voltage was acquired at 5 KHz and filtered at 1 KHz. Ramp clamps were conducted by imposing a voltage ramp (14 mV/s) at a 500 Hz acquisition rate with 1 kHz filtering. Data were analyzed using pCLAMP 8.0 (Axon) and Origin 6.0 (Microcal) and are presented as mean±SEM. Steady-state current was determined by computer calculation of average current over a time period of at least 5 s. In all experiments, the n value indicates the number of myocytes studied, and represents pooled data from at least 2 (voltage clamp) or 3 (current clamp) animals. Student's t-test, one-way ANOVA and χ^2 tests were used; a value of p<0.05 was considered statistically significant. Records have been corrected for the junction potential, which was measured to be 9.8 mV.

TASK-1 [1] = target: T1, TASK-1 (Mus musculus, UniProt O35111); assay: C-PAF-sensitive steady-state current in murine ventricular myocytes (voltage clamp); type: cell-based
T1 construct: endogenous in cells; host or cells: adult mouse ventricular myocytes (C57/B16 background; WT or PAFR KO)
T1 sequence (O35111 whole entry): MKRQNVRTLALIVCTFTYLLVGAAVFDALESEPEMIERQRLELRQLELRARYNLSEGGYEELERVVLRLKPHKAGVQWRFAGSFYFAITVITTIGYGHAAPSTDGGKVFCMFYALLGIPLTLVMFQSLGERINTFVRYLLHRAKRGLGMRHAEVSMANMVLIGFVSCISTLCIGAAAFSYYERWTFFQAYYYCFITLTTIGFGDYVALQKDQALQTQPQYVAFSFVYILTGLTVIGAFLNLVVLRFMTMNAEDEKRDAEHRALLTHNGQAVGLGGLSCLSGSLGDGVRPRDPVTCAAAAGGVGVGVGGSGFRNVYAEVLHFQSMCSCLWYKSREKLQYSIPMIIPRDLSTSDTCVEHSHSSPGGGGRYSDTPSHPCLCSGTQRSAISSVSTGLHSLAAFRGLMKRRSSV
Experimental: as §1, §2, §3

TASK-1 [2] = target: T1, TASK-1; assay: Methanandamide-sensitive current in murine ventricular myocytes; type: cell-based
Source text: as §2
Current and voltage protocols were generated using Clampex 7.0 software applied by means of an Axopatch 200B amplifier and a Digidata 1200 interface (Axon Instruments). During voltage clamp, steady state current traces were acquired at 500 Hz and final filtered at 10 Hz. […] Data were analyzed using pCLAMP 8.0 (Axon) and Origin 6.0 (Microcal) and are presented as mean±SEM. Steady-state current was determined by computer calculation of average current over a time period of at least 5 s. […] Records have been corrected for the junction potential, which was measured to be 9.8 mV.

murine TASK-1 [3] = conditions: typical, from Barbuti et al. 2002; cited from earlier work
[4] = tested on: adult rat ventricular myocytes; assay: Methanandamide-induced arrhythmias in cultured adult rat ventricular myocytes; type: cell-based; conditions: paced at 1 Hz
Experimental: FIG. 28. Methanandamide-induced arrhythmias are prevented by over expression of TREK-1 in cultured myocytes. The action potentials of cultured adult rat ventricular myocytes were recorded in current clamp mode during stimulation at 1 Hz.
The action potentials of cultured adult rat ventricular myocytes were recorded in current clamp mode during stimulation at 1 Hz.

human TASK-1 T383A = assay: Human TASK-1 T383A mutant current in CHO cells; type: cell-based; conditions: Tyrode's pH 8, ramp
Source text: FIGS. 24A-24B. Mutations in human TASK-1 remove the sensitivity to C-PAF and PMA when the channel is expressed in CHO cells. Two human TASK-1 (hTASK-1) mutants in which either serine-358 was converted to alanine (S358A) or threonine-383 was converted to alanine (T383A) were generated and separately expressed in CHO cells. The C-PAF-sensitive (24A) and PMA-sensitive currents (24B) were obtained in Tyrode's at pH 8 using a ramp protocol in […] configuration, essentially as described in FIG. 15. […] However, the S358A channel was not inhibited in the presence of C-PAF (24A) and the T383A channel was not inhibited by PMA (24B).

murine TASK-1 [5] = assay: TASK-1 current expressed in CHO cells (whole-cell ramp clamp); type: cell-based, mouse
Experimental: The TASK-1 clone (provided by Professor Y. Kurachi, Osaka University) was co-transfected in CHO cells with CD8 plasmid using Lipofectamine Plus (Invitrogen) according to the manufacturer's instructions. 48 h later cells were transferred to the electrophysiology chamber and anti-CD8 coated beads (Dynal Biotech) were added to identify CD8 expressing cells. Expressing cells were voltage clamped using a ramp clamp (see below). CHO cells were used in these experiments, in part, because they express endogenous PAFR.
Chinese hamster ovary cells (CHO) were grown in F-12 medium supplemented with 10% fetal bovine serum. Twenty-four hours prior to transfection, cells were seeded into 6 well plates at 80-90% of confluence. Transfections were carried out with the GeneJammer transfection reagent (Stratagene) according to the manufacturer's instructions. Briefly, cells were washed with PBS and their medium replaced with supplemented F-12 medium (900 μl/well). For each well, GeneJammer (6 μl) was incubated with Opti-MEM (90 μl) followed by the addition of DNA (1 μg). This mixture was then added to the wells and 3 h later an additional 2 ml of supplemented F-12 medium was added. After incubating overnight, the cells were washed and their medium replaced.
Cells were either co-transfected with pCMV-TASK1 together with pEGFP-C1 (1 μg total, 3:1) or transfected with […] or T381A-pTIE (1 μg). 48 h after the transfection the cells were checked under the microscope for green fluorescence. Approximately 20% of the cells were positive for EGFP and these were then used for patch-clamp experiments. Due to the culture-to-culture variability in the expression of TASK-1 current, most comparisons were made on matched controls from the same transfection. Summary results were then obtained by pooling data from several different culture preparations.
The myocyte suspension or the coverslip with CHO cells was placed into a perfusion chamber, mounted on the stage of an inverted microscope. Unless otherwise indicated, CHO cells were superfused at room temperature with standard external Tyrode's buffer, containing (mM): NaCl, 140; KCl, 5.4; CaCl2, 1; MgCl2, 1; HEPES, 5; glucose, 10; adjusted to pH 7.4. Recordings were begun after the current reached a stable baseline (usually 3 to 4 min after initial cell rupture). In myocytes, TASK-1 current is small and exists in the presence of numerous larger K^+ currents. In order to increase the inward component of TASK-1 current and to block other potassium currents in myocytes, a modified high K^+ external solution (modified Tyrode's) was used to reduce outward rectification of TASK-1 current. The composition of this solution-was (in mM): NaCl, 100; KCl, 50; CaCl2, 1; MgCl2, 1; HEPES, 5; glucose, 10; tetraethylammonium (TEA), 1; CsCl, 5; adjusted to pH 7.4. Membrane potential and current were measured in the whole cell configuration using borosilicate glass pipettes with a tip resistance between […] and filled with a pipette solution containing (mM): aspartic acid, 130; KOH, 146; NaCl, 10; CaCl2, 2; EGTA, 5; HEPES, 10; MGATP, 2; pH 7.2. The stock solutions of C-PAF and of the PKC inhibitor, bisindolylmaleimide (BIM-I; Calbiochem), were prepared in water and diluted to the final concentrations in Tyrode's or modified Tyrode's, as appropriate. The PKC activator, PMA, was prepared in DMSO and then diluted in Tyrode's. […] Myocytes treated with the peptides were monitored continuously beginning immediately after rupture to detect the occurrence of any arrhythmias during dialysis of the peptide. Application of C-PAF to cells treated with the inhibitor peptide was started after the peptide had been permitted to dialyse into the cell (8-10 min after rupture for CHO or 10-12 min after rupture for myocytes).
The current and the voltage protocols were generated using Clampex 8.0 software applied by means of an Axopatch 200-B and a Digidata 1200 interface (Axon Instruments). […]

[6] = tested on: murine TASK-1 T381A mutant; assay: T381A mutant TASK-1 current in CHO cells; type: cell-based, mouse
Experimental: pCMV-TASK1 (cTBAK) consists of a 1.9 kb sequence of murine TASK-1 inserted in pcDNA3.1 (a kind gift of Dr. Yoshihisa Kurachi, University of Osaka, Japan) and has been previously described (Leonoudakis D et al. (1998) J Neurosci 18: 868-877). pEGFP-C1 and pIRES-EGFP were purchased from Clontech. pTIE (TASK1-IRES-EGFP) was constructed by inserting a 1.9 kb EcoR1 fragment from pCMV-TASK1 into EcoR1 digested pIRES-EGFP. Site-directed mutagenesis was performed on pTIE using the Quik-Change kit (Stratagene) following the manufacturer's instructions. […]
Cells were either co-transfected with pCMV-TASK1 together with pEGFP-C1 (1 μg total, 3:1) or transfected with […] or T381A-pTIE (1 μg). 48 h after the transfection the cells were checked under the microscope for green fluorescence. […]
The myocyte suspension or the coverslip with CHO cells was placed into a perfusion chamber, mounted on the stage of an inverted microscope. […] Membrane potential and current were measured in the whole cell configuration using borosilicate glass pipettes with a tip resistance between […] and filled with a pipette solution containing (mM): aspartic acid, 130; KOH, 146; NaCl, 10; CaCl2, 2; EGTA, 5; HEPES, 10; MGATP, 2; pH 7.2. […] Myocytes treated with the peptides were monitored continuously beginning immediately after rupture to detect the occurrence of any arrhythmias during dialysis of the peptide. […]

PKC = conditions: cited from earlier work

For `CCCCC/C=C\C/C=C\C/C=C\C/C=C\CCCC(=O)N[C@H](C)CO` [methanandamide], the “quiescent WT myocytes with spontaneous action potentials” value (quiescent myocytes; methanandamide 10 μM) was 7 of 12, the “effect on C-PAF-sensitive current” value (TASK-1 [1]; held at −10 mV, C-PAF 185 nM, Ba2+ 3 mM, Zn2+ 3 mM, lipids and ATFK 10 μM) was “inhibited” and the “methanandamide-sensitive current with PAFR blocked or absent” value (TASK-1 [2]; methanandamide 10 μM, CV-6209 100 nM or PAFR KO myocytes) was “fully effective”. The “inhibition of TASK-1 current” value (murine TASK-1 [3]) was “approximately 60%”, the “arrhythmias in control cells expressing only GFP” value [4] was “typical arrythmias were observed” and the “arrhythmias in myocytes overexpressing GFP and TREK-1” value [4] was “unable to induce arrhythmias”.

For `CCCCCCCCCCCCCC(=O)O[C@@H]1[C@@H](C)[C@@]2(O)[C@@H](C=C(CO)C[C@]3(O)C(=O)C(C)=C[C@@H]23)[C@@H]2C(C)(C)[C@]12OC(C)=O` [PMA, phorbol 12-myristate 13-acetate], the “inhibition of T383A channel” value (human TASK-1 T383A) was “not inhibited”, the “TASK-1 current density in the presence of drug” value (murine TASK-1 [5]; +30 mV, C-PAF 185 nM or PMA 100 nM, no peptide) was 59.2±10.1 pA/pF and the “inhibition of TASK-1 current” value (murine TASK-1 [5]; +30 mV, PMA 100 nM (n=17), C-PAF 185 nM (n=20)) was 19.8±2.7%. For the same compound, the “TASK-1 current density after drug” value (murine TASK-1 [5]; PKCε-inhibitor peptide 100 nM in pipette, C-PAF 185 nM or PMA 100 nM) was 41.2±12.3 pA/pF, the “TASK-1 current density after drug” value (murine TASK-1 [5]; scrambled peptide 100 nM in pipette, PMA 100 nM) was 36.6±6.2 pA/pF and the “sensitivity of mutant channel to PMA” value [6] was “nor is it sensitive to PMA treatment”.

With `CN(C)CCCn1cc(C2=C(c3c[nH]c4ccccc34)C(=O)NC2=O)c2ccccc21` [BIM I, bisindolylmaleimide I] the “quiescent WT cells that failed to respond to C-PAF” value (quiescent myocytes; BIM I 100 nM, C-PAF 185 nM) was 6 of 8, the “effect on C-PAF-sensitive current” value (TASK-1 [1]; BIM I 100 nM, −10 mV) was “completely blocked” and the “effect of PKC inhibitor or inactive analogue on C-PAF-sensitive current” value (TASK-1 [1]; BIM I 40 and 100 nM, BIM V, −10 mV) was “blocked in a dose-dependent manner”. The “effect on methanandamide-sensitive current” value (TASK-1 [2]; BIM I 100 nM, WT myocytes) was “significantly reduced”, the “C-PAF-sensitive current in the presence of PKC inhibitor” value (murine TASK-1 [5]; BIM-I 100 nM, C-PAF 185 nM) was “no measurable C-PAF-sensitive current” and the Ki (PKC) was 14 nM.
